Test results from US20110294874A1, “DIAGNOSIS AND THERAPY OF ORGAN DYSFUNCTION USING SPHINGANINE-1-PHOSPHATE” (The Trustees of Columbia University in the City of New York, priority 2008, published 2011).
Values joined by “and” are separate entries in the source; they are usually repeats but may differ in a detail not shown here. Equal entries are not always repeated.

Key:
[1] = system: SK1 KO mice subjected to liver IR; test: Liver IR in SK1 KO mice: plasma ALT and creatinine; assay type: in vivo, mouse; conditions: SK1KO, hepatic IR 24 h
Protocol: (§1) The effects of administering Sg1P (0.1 mg/kg i.v. and 0.2 mg/kg s.c.) on liver and renal injury were also determined in the KO mice and are also shown in Tables 9 and 10 below.

[2] = system: SK2 KO mice subjected to liver IR; test: Liver IR in SK2 KO mice: plasma ALT and creatinine; assay type: in vivo, mouse; conditions: SK2KO, hepatic IR 24 h
Protocol: as §1

[3] = system: C57BL/6 mice subjected to liver IR; test: Evans blue dye extravasation (vascular permeability) in liver and kidney after liver IR; assay type: in vivo, mouse; conditions: vs vehicle-treated group
Protocol: After observing marked endothelial apoptosis following liver IR, liver and kidney vascular permeability after liver IR was measured with Evans blue dye (EBD) injection. EBD binds to plasma proteins and its appearance in extravascular tissues reflects an increase in vascular permeability, which is indicative of organ injury. Liver IR increased the EBD content (in μg EBD/g dry weight) in the liver (377±48, N=6) compared to sham-operated mice (48±7, N=4, p<0.001).

[4] = system: C57BL/6 mice subjected to liver IR; test: Neutrophil infiltration into liver and kidney after liver IR; assay type: in vivo, mouse
Protocol: (§2) Mice were anesthetized with intraperitoneal pentobarbital (50 mg/kg or to effect). Mice were placed under a heating lamp and on a 37° C. heating pad. After a midline laparotomy and intraperitoneal application of 20 U heparin, left lateral and median lobes of the liver were subjected to ischemia with a microaneurysm clip occluding the hepatic triad above the bifurcation. This method of partial hepatic ischemia results in a segmental (˜70%) hepatic ischemia but spares the right lobe of the liver and prevents mesenteric venous congestion by allowing portal decompression throughout the right and caudate lobes of the liver. The liver was then repositioned in the peritoneal cavity in its original location for 60 minutes. The liver was kept moist with gauze soaked in 0.9% normal saline. The body temperature was monitored by an infrared temperature sensor (Linear Laboratories, Fremont, Calif.) every 10 min. and maintained at 37° C. using a heating lamp and a heating pad. After 60 minutes, the liver was reperfused and the wound closed. Sham-operated mice were subjected to laparotomy and identical liver manipulations without vascular occlusion. Two, 4 and 24 hr after reperfusion, plasma was collected for the measurement of alanine aminotransferase (ALT), a common indicator of liver damage, as well as creatinine (Cr) a common indicator of kidney damage. […]

[5] = system: Sham-operated C57BL/6 mice; test: Sham-operated C57BL/6 mice: plasma ALT and creatinine; assay type: in vivo, mouse
Protocol: as §2

[6] = system: C57BL/6 mice subjected to liver IR; test: Kidney H&E histology after liver IR; assay type: in vivo, mouse; conditions: vs vehicle-treated controls
Description: Liver IR-induced AKI in mice shared similar histological changes observed in human AKI associated with liver failure, as observed in H&E slides of kidney sections taken from the mice (see FIG. 3). Multifocal acute tubular injury including individual cell necrosis involving the juxtamedullary proximal tubules of the S3 segment was observed. […] Endothelial apoptosis of peritubular capillaries was also visible in H&E sections as linear arrays of apoptotic bodies corresponding to the interstitial capillary lining endothelium. […] The number of glomeruli with detectable juxtaglomerular apparatus and the number of cells per juxtaglomerular apparatus were both increased after liver IR, indicating hyperplasia of the juxtaglomerular apparatus. […] Liver IR produced large necrotic areas of liver tissue. The average percentage of necrotic areas in liver samples taken from liver IR mice were 92%±2% (n=6), while no necrosis was found in sham-operated mice. Livers were also analyzed for the degree of hepatocellular damage.

[7] = system: human renal glomerular endothelial cells (HRGEC); test: HRGEC apoptosis, kinase phosphorylation, HSP27 and F-actin; assay type: cell-based
Protocol: IHUVEC—immortalized human umbilical vein endothelial cells (ATCC, P.O. Box 1549 Manassas, Va. 20108) or HRGEC—human renal glomerular endothelial cells (ScienCell Research Laboratories, 6076 Corte Del Cedro Carlsbad, Calif. 92011) were cultured within a humidified atmosphere of 5% CO2 in air and grown to confluence. When confluent, the cells were trypsinized and seeded onto 0.45 μm pore size polycarbonate filters at the base of inserts of 6.5 mm diameter Transwell chambers and cultured until confluence.
In further experiments, apoptosis was induced in human renal endothelial (HRGEC) cells with either TNF-α plus cycloheximide or H2O2, with or without Sg1P treatment. In both cases, the addition of Sg1P (1 uM) reduced PARP and caspase 3 fragmentations, which are indices of apoptosis (N=2, data not shown).

[8] = system: human epithelial HK-2 cell line; test: Kinase phosphorylation and HSP27 expression in HK-2 cells; assay type: cell-based; conditions: HK-2 (data not shown)
Description: As shown above, Sg1P protects human endothelial cells, and does so through the same mechanism as shown in mouse tissue.

[9] = system: C57BL/6 mice subjected to liver IR; test: Pro-inflammatory mRNA (RT-PCR) and plasma TNF-α/IL-6 after liver IR; assay type: in vivo, mouse
Protocol: Mice were anesthetized with intraperitoneal pentobarbital (50 mg/kg or to effect). Mice were placed under a heating lamp and on a 37° C. heating pad. After a midline laparotomy and intraperitoneal application of 20 U heparin, left lateral and median lobes of the liver were subjected to ischemia with a microaneurysm clip occluding the hepatic triad above the bifurcation. This method of partial hepatic ischemia results in a segmental (˜70%) hepatic ischemia but spares the right lobe of the liver and prevents mesenteric venous congestion by allowing portal decompression throughout the right and caudate lobes of the liver. The liver was then repositioned in the peritoneal cavity in its original location for 60 minutes. The liver was kept moist with gauze soaked in 0.9% normal saline. The body temperature was monitored by an infrared temperature sensor (Linear Laboratories, Fremont, Calif.) every 10 min. and maintained at 37° C. using a heating lamp and a heating pad. After 60 minutes, the liver was reperfused and the wound closed. Sham-operated mice were subjected to laparotomy and identical liver manipulations without vascular occlusion. Two, 4 and 24 hr after reperfusion, plasma was collected for the measurement of alanine aminotransferase (ALT), a common indicator of liver damage, as well as creatinine (Cr) a common indicator of kidney damage. The liver tissue subjected to IR was collected to measure percent liver necrosis (2, 4 and 24 hr after IR), neutrophil infiltration (with immunohistochemistry, 4 and 24 hr after IR), apoptosis (with terminal deoxynucleotidyl transferase-mediated dUTP nick end labeling staining, caspase 3 immunoblotting and DNA laddering, 24 hr after IR), and inflammation by RT-PCR for pro-inflammatory mRNAs (4 hr after IR).
The extent of the suppression was different between kidney and liver. […]

[10] = system: C57BL/6 mice subjected to liver IR; test: Murine model of liver ischemia reperfusion (hepatic IR): plasma ALT and creatinine; assay type: in vivo, mouse
[11] = 0.1 mg/kg i.v. and 0.2 mg/kg s.c.
[12] = 0.2 mg/kg i.v. 2 hours post-reperfusion
[13] = C57BL/6 mice, 60 min liver ischemia, 24 h reperfusion
[14] = single dose 0.1 mg/kg i.v. immediately before reperfusion
[15] = single dose 0.2 mg/kg s.c. two hours after reperfusion

## CCCCCCCCCCCCCCC[C@@H](O)[C@@H](N)COP(=O)(O)O [Sg1P, sphinganine-1-phosphate]
[1]
  Creatinine (mean): 0.709 mg/dL
[1]; [11]
  ALT (mean): 9602.01 U/L
[2]
  Creatinine (mean): 0.679 mg/dL
[2]; [11]
  ALT (mean): 7575.28 U/L
[3]
  Increase in EBD content in liver and kidney: significantly lower
[4]
  Neutrophils in necrotic areas of the liver: 21.8±7.1 neutrophils/field
  Neutrophils in the kidneys: 0.8±0.3 neutrophils/field
[5]
  Mean ALT: 80 U/L
  Mean Creatinine: 0.46 mg/dL
[6]
  Indications of AKI in kidney H&E slides: significantly less indications of AKI
[7]; 1 uM, apoptosis induced with TNF-α plus cycloheximide or H2O2
  PARP and caspase 3 fragmentations: reduced
[7]; HRGEC treated with TNF-α, co-administration
  Phalloidin staining (F-actin): restored the phalloidin staining
[7]; HRGEC, 1 μM
  HSP27 phosphorylation and total HSP27 expression: induced the phosphorylation of HSP27, as well as increased expression of total HSP27
  Phosphorylation of ERK and Akt: resulted in the phosphorylation
[8]
  Phosphorylation of ERK/MAPK, Akt, HSP27 and HSP27 expression: failed to phosphorylate ERK/MAPK, Akt and HSP27 and also failed to induce HSP27 expression
[9]; kidney
  Liver IR-induced ICAM-1 and MIP-2 mRNA upregulation in kidney: suppressed
[9]; liver
  Liver IR-induced upregulation of ICAM-1, KC, MCP-1 and MIP-2 mRNA in liver: suppressed
[9]; plasma
  Liver IR-induced increase in plasma TNF-α and IL-6: almost eliminated
[10]; [12]
  ALT (liver protection): 12063±593 U/L
  Creatinine (kidney protection): 0.93 ± 0.05 mg/dL
[10]; [13]
  Serum ALT (mean): 7474±557 U/L and 7474 U/L
  Serum creatinine (mean): 0.528 ± 0.07 mg/dL and 0.55 mg/dL
[10]; dose response 0.01-1.0 mg/kg i.v. prior to reperfusion plus double dose s.c. 2 h after, serum creatinine and ALT
  Most effective dose for treating both kidney and liver failure: 0.1 mg/kg i.v. prior to reperfusion followed by 0.2 mg/kg s.c. 2 hours after reperfusion
[10]; non-nephrectomized mice
  Reduction in the severity of liver injury (change in ALT levels): 50%
[10]; [14]
  ALT: 7197±753 U/L
  Cr: 0.58 ± 0.06 mg/dL
[10]; [15]
  ALT: 14762±1732 U/L
  Cr: 0.98 ± 0.06 mg/dL
